Test results reported in patent US8501792B2, “Treating cancer with desthiazolyl ritonavir” (priority 2008, dated 2013).

Columns and labels:
ER+ lines = test: MTT proliferation assay, ER+ lines (IC90); type: cell-based; conditions: difference to ritonavir, read-out: IC90 values, amount less than ritonavir
Method: M1 inhibition of proliferation of MCF7, T47D and MDA-MB-231 cell lines was studied. Cells (n=2000/well) were seeded in 96 well plates with drug or vehicle (DMSO) on D1 and after 48 h the cell number was determined by MTT assay. Each assay was performed with 8 measurements for each data point (See FIG. 1, wherein graph A corresponds to MCF7, graph B corresponds to T47D, and graph C corresponds to MDA-MB-231).

Purified mammalian Hsp90 = test: Hsp90 binding on CM-5 BIAcore chip (surface plasmon resonance); conditions: RU value versus drug concentration; FIG. 11
Source text: Inhibition of Hsp90 can be evaluated by surface plasmon resonance studies of a compound of formula I, using a CM-5 Biacore chip on which Hsp90 (Stressgen, Ann Arbor) has been immobilized. This method can also be used to evaluate the chaperoning activity of a compound of formula I by evaluation of luciferase refolding. See Examples 4 and 9.
Purified mammalian Hsp90 was attached to a CM-5 BIAcore chip through an NHS ester linkage. After attachment of the Hsp90 and blocking the chip with BSA, M1 drug or a 17-AAG control was circulated through a microfluidic circuit and change in refractive index was measured by quantification of the RU value for each drug concentration. In the case of the 17-AAG control the binding was saturable and based on the kon and koff measurements, the KD was estimated to be in the 1 microM range. […] This means that there are significant differences in the binding of M-1 and may indicate alteration of the Hsp90 structure.

HER2 = test: Surface HER2 flow cytometry in SKBR3 cells; type: cell-based
Method: SKBR3 cells were plated at a density of 80,000 cells/well in 6-well plates. After 18 hours, cells were exposed to ritonavir (33 μM), Desthiazolyl Ritonavir (M1) (33 μM), or DMSO. After 24 hours, cells were trypsinized, spun down, and resuspended in 50 μL of Staining Buffer (PBS 1% BSA). Cells were then incubated with anti-HER2 Ab FITC (Chemicon International; MAB4083F) for 30 minutes (on-ice and in the dark). Control cells were incubated with mouse IgG1 FITC (Biolytex). Cells were washed two times with Washing Buffer (PBS 0.1% Tween-20), resuspended in 100 μL of PBS, and acquired using FACSCalibur flow cytometer.

[1] = test system: H522 adenocarcinoma non-small cell lung cancer cell; test: MTT proliferation assay, H522; type: cell-based; conditions: 10 to 80 μmol/L, 48 hours, FIG. 18
Method: H522 adenocarcinoma non-small cell lung cancer cell proliferation was measured in 96-well plates by a 3-(4,5-dimethylthiazol-2-yl)-2,5 diphenyltetrazolium bromide (MTT) assay that measures reduction of MTT in 96-well plates (see Ohno M, Abe T. J Immunol Methods, 1991 Dec. 15; 145(1-2):199-203). The cells were exposed to 10 to 80 μmol/L ritonavir, M1 or DMSO vehicle for 48 hours and proliferation was subsequently quantified by MTT assay. The MTT was added to the medium at the endpoint and the plate was incubated for 2 hours. The plate was then centrifuged in an Allegra plate centrifuge at 2000 rpm for 5 minutes. The medium was removed, and the pellet was dissolved in 100 μL of DMSO per well. The pellet was dissolved using a gently vibrating platform. The plates were read with a BioTek Synergy plate reader in colorimetric mode at 540 nm. Each assay was performed in octuplicate for each data point.

For `CC(C)c1nc(CN(C)C(=O)NC(C(=O)NC(Cc2ccccc2)CC(O)C(N)Cc2ccccc2)C(C)C)cs1` (centres unmarked) [M1, desthiazolyl ritonavir], the IC90 (ER+ lines) was over 30 µM, the “binding to Hsp90, saturability” value (Purified mammalian Hsp90) was “the binding is not saturable” and the “anti-HER2 functionality / expression of surface HER2” value (HER2; SKBR3, 33 μM, 24 hours, FIG. 7) was “exhibited anti-HER2 functionality”. The “reduction of the expression of surface HER2” value (HER2; SKBR3 line, P<0.05) was “up to 80%” and the “measured cell proliferation compared to cells exposed to ritonavir or DMSO” value [1] was “lower”.
